Reference: PMC6152024 (Molecules : A Journal of Synthetic Chemistry and Natural …, 2017)

Assays:
CYP3A = CYP3A (Homo sapiens, UniProt P08684); assay: Reversible CYP3A inhibition, testosterone 6β-hydroxylation in human liver microsomes; type: in vitro ADME; conditions: HLMs, Lineweaver-Burk plot
Description: A NADPH regenerating system (NADPH-gs, containing 10 mM glucose-6-phosphate, 5 mM magnesium chloride, 1 U/mL glucose-6-phosphate dehydrogenase and 1 mM NADP+) was constructed. The metabolite of Tes, 6OH-Tes, was assayed by UHPLC-MS method (I) for CYP3A activity assessment.
The CYP3A inhibition by Gom A was preliminarily evaluated. […] After a 5 min warm up period, reactions were initiated with addition of NADPH-gs. Incubations were conducted at 37 °C for 10 min and then terminated by the addition of 200 µL ice-cold acetonitrile containing 18 ng/mL phenacetin (IS-I). […] Incubations were processed and terminated as described earlier.
Pharmacokinetic profiles of CTX and DCCTX were estimated by one-compartmental model using the DAS 2.0 software ([…], Medical College of Wannan, Anhui, China). Data were expressed as mean ± SD. Comparisons between two groups were performed using one-way ANOVA followed by LSD test in the condition of variance homogeneity or Dunnett T3 test in the case of variance heterogeneity. […] IC50 values of Gom A were determined by nonlinear regression analysis using GraphPad Prism 5.01 software (GraphPad Software Inc., San Diego, CA, USA). The mode of inhibition was verified by Lineweaver-Burk plots of the enzyme kinetic data, and the KI value was determined by linear regression analysis with GraphPad Prism 5.01 (GraphPad Software Inc.). […]

rat hepatic CYP3A = assay: Effect of Gom A pretreatment on rat hepatic CYP3A activity (liver microsomes from pretreated rats); type: in vivo; conditions: RLMs; for DCCTX production decrease compared with control group: CTX 100 ng/mL; for rat hepatic CYP3A activity, % of the control group activity: Tes 25 µM
Description: Rats were randomly divided into four groups (control group; pretreatment groups: 0.5 h group, 6 h group, 12 h group). Rats in control group and pretreatment groups were administrated (i.g.) with saline (2 mL/kg) and Gom A (20.8 mg/kg) respectively. In control group, rats were anesthetized 0.5 h after administration. In pretreatment groups, rats were anesthetized 0.5 h, 6 h, 12 h after Gom A pretreatment respectively. After anesthesia, the rat livers were infused with cool saline. After infusion, rats were euthanized and livers were collected. The liver microsomes were prepared using calcium precipitation method. Briefly, livers were weighted, washed with cool PBS (0.1 M), and then homogenized in cool Tris-PBS (50 mM Tris, w/v = 1:4). The mixture was centrifuged at 14,000 g for 20 min at 4 °C. The supernatant was mixed with CaCl2 solution (88 mM, vsupernantant/vCaCl2 = 10:1) and then centrifuged at 14,000 g for 20 min at 4 °C. The precipitate was resuspended in Tris-PBS and centrifuged (14,000 g, 4 °C, 20 min). Finally, the precipitate was resuspended in PBS containing 250 mM glucose, giving a concentration of 5 mg protein/mL. The prepared microsomes were stored at −80 °C until use.
To determine the effect of Gom A pretreatment on rat hepatic CYP3A activity, liver microsomes from control and pretreatment groups were incubated with Tes (25 µM) and CTX (100 ng/mL) respectively. The incubation procedures were similar with Section 4.3.1 and Section 4.3.4 for Tes and CTX incubation, respectively. For incubations using Tes, 0.5 mg/mL RLMs was incubated with 25 µM Tes in PBS (0.1 M) containing NADPH-gs at 37 °C in a total volume of 200 µL. After a 5 min warm up period, reactions were initiated with addition of NADPH-gs. Incubations were conducted at 37 °C for 10 min and then terminated by the addition of 200 µL ice-cold acetonitrile containing 18 ng/mL phenacetin (IS-I). For incubations using CTX, 0.5 mg/mL RLMs was incubated with 100 ng/mL CTX in PBS (0.1 M) containing NADPH-gs at 37 °C in a total volume of 200 µL. After a 5 min warm up period, reactions were initiated with addition of NADPH-gs. Incubations were conducted at 37 °C for 60 min and then terminated by the addition of 200 µL ice-cold acetonitrile containing 6 ng/mL of TNZ (IS-II).
After reaction termination, concentration of 6OH-Tes and DCCTX were determined.

[1] = 0.5 h after Gom A 20.8 mg/kg i.g.
[2] = 6 h after Gom A 20.8 mg/kg i.g.
[3] = 12 h after Gom A 20.8 mg/kg i.g.

Sequence of CYP3A (P08684 2-503): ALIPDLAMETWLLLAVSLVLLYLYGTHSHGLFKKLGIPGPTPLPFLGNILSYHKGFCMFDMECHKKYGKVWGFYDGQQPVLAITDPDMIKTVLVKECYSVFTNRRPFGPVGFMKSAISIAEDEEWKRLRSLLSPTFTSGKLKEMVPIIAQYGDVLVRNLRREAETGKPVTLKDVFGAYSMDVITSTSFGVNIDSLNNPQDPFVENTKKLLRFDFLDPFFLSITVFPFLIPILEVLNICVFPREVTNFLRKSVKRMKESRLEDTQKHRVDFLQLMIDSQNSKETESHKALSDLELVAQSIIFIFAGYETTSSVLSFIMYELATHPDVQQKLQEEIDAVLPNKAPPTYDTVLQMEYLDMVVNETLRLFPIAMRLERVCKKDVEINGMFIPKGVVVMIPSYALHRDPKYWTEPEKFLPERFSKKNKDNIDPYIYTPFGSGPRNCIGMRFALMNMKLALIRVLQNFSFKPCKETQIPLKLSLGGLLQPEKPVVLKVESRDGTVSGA

Gomisin A [Gom A] was tested, and the mode of inhibition (CYP3A) was “competitive inhibitor”, the “DCCTX production decrease compared with control group” value (“DCCTX production decrease” for short) (rat hepatic CYP3A; [1]) was 54.7% and the “rat hepatic CYP3A activity, % of the control group activity” value (from here on “rat hepatic CYP3A activity, %”) (rat hepatic CYP3A; [1]) was 52.1%. For the same substance, the “DCCTX production decrease” value (rat hepatic CYP3A; [2]) was 52.0%, the “rat hepatic CYP3A activity, %” value (rat hepatic CYP3A; [2]) was 37.3% and the “DCCTX production decrease” value (rat hepatic CYP3A; [3]) was 40.5%. For the same substance, the “rat hepatic CYP3A activity, %” value (rat hepatic CYP3A; [3]) was 61.2%.
